In patent publication US11426397B2, “Piperidinyl- and piperazinyl-substituted heteroaromatic carboxamides as modulators of GPR6” (TAKEDA PHARMACEUTICAL COMPANY LIMITED, priority 2017, dated 2022):

What follows are compounds tested against T1, GPR6 receptor expressed in CHO-K1 cells (Homo sapiens, UniProt P46095) (assay: In vitro inhibition of cAMP (EC50), cell-based HTRF cAMP assay). Conditions: inhibition of constitutive cAMP activity of GPR6 in CHO-K1 cells.
T1 construct: expressed in transfected cells
T1 sequence (P46095 whole entry): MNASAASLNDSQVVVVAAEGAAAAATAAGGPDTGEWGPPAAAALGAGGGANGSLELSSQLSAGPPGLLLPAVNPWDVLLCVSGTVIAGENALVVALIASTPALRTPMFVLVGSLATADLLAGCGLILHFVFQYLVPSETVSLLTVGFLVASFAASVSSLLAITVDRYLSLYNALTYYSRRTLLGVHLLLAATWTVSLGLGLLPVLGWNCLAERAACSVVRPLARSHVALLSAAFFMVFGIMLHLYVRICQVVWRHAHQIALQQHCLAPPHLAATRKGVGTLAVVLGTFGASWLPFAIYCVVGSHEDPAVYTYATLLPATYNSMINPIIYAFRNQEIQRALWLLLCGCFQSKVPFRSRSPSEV
Outline: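 Cellular cAMP measured by Lance Ultra HTRF (Eu-cAMP tracer, ULight anti-cAMP), with EC50 fitted by four-parameter logistic. Test compounds sat on cells 45 min, 37 °C, in pH 7.4 Ringer's with 300 μM IBMX and 0.5% BSA; GPR6 in CHO-K1 induced beforehand by doxycycline, 2 μg/mL, 20 h.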

Row | SMILES | pEC50, in vitro inhibition of cAMP
1 | COc1cc(F)ccc1CN1CCN(c2ncc(C#N)cc2NC(=O)c2cn(C)nc2OC)CC1 [Example 155, N-(5-cyano-2-(4-(4-fluoro-2-methoxybenzyl)piperazin-1-yl)pyridin-3-yl)-3-methoxy-1-methyl-1H-pyrazole-4-carboxamide] | 6.3
2 | COc1cccc(CN2CCN(c3ncc(C#N)cc3NC(=O)c3cn(C)nc3OC)CC2)c1 [Example 156, N-(5-cyano-2-(4-(3-methoxybenzyl)piperazin-1-yl)pyridin-3-yl)-3-methoxy-1-methyl-1H-pyrazole-4-carboxamide] | 6.4
3 | COc1ccc(CN2CCN(c3ncc(C#N)cc3NC(=O)c3cn(C)nc3OC)CC2)cc1 [Example 157, N-(5-cyano-2-(4-(4-methoxybenzyl)piperazin-1-yl)pyridin-3-yl)-3-methoxy-1-methyl-1H-pyrazole-4-carboxamide] | 6.7
4 | COc1cc(CN2CCN(c3ncc(C#N)cc3NC(=O)c3cn(C)nc3OC)CC2)ccc1F [Example 158, N-(5-cyano-2-(4-(4-fluoro-3-methoxybenzyl)piperazin-1-yl)pyridin-3-yl)-3-methoxy-1-methyl-1H-pyrazole-4-carboxamide] | 6.3
5 | COc1cc(F)cc(CN2CCN(c3ncc(C#N)cc3NC(=O)c3cn(C)nc3OC)CC2)c1 [Example 159, N-(5-cyano-2-(4-(3-fluoro-5-methoxybenzyl)piperazin-1-yl)pyridin-3-yl)-3-methoxy-1-methyl-1H-pyrazole-4-carboxamide] | 6.0
6 | COc1nn(C)cc1C(=O)Nc1cc(C#N)cnc1N1CCN(Cc2cccc(F)c2OC)CC1 [Example 160, N-(5-cyano-2-(4-(3-fluoro-2-methoxybenzyl)piperazin-1-yl)pyridin-3-yl)-3-methoxy-1-methyl-1H-pyrazole-4-carboxamide] | 6.5
7 | COc1ccc(F)cc1CN1CCN(c2ncc(C#N)cc2NC(=O)c2cn(C)nc2OC)CC1 [Example 161, N-(5-cyano-2-(4-(5-fluoro-2-methoxybenzyl)piperazin-1-yl)pyridin-3-yl)-3-methoxy-1-methyl-1H-pyrazole-4-carboxamide] | 6.5
8 | COc1nn(C)cc1C(=O)Nc1cc(C#N)cnc1N1CCN(Cc2ccc(OC(F)F)cc2)CC1 [Example 162, N-(5-cyano-2-(4-(4-(difluoromethoxy)benzyl)piperazin-1-yl)pyridin-3-yl)-3-methoxy-1-methyl-1H-pyrazole-4-carboxamide] | 6.6
9 | COc1nn(C)cc1C(=O)Nc1cc(C#N)cnc1N1CCN(Cc2ccccc2OC(F)F)CC1 [Example 163, N-(5-cyano-2-(4-(2-(difluoromethoxy)benzyl)piperazin-1-yl)pyridin-3-yl)-3-methoxy-1-methyl-1H-pyrazole-4-carboxamide] | 6.7
10 | COc1nn(C)cc1C(=O)Nc1cc(C#N)cnc1N1CCN(Cc2cccc(OC(F)F)c2)CC1 [Example 164, N-(5-cyano-2-(4-(3-(difluoromethoxy)benzyl)piperazin-1-yl)pyridin-3-yl)-3-methoxy-1-methyl-1H-pyrazole-4-carboxamide] | 6.5
11 | COc1nn(C)cc1C(=O)Nc1cc(C#N)cnc1N1CCN(Cc2cccc(OC(F)(F)F)c2)CC1 [Example 165, N-(5-cyano-2-(4-(3-(trifluoromethoxy)benzyl)piperazin-1-yl)pyridin-3-yl)-3-methoxy-1-methyl-1H-pyrazole-4-carboxamide] | 6.7
12 | COc1nn(C)cc1C(=O)Nc1cc(C#N)cnc1N1CCN(Cc2ccc(OC(F)(F)F)cc2)CC1 [Example 166, N-(5-cyano-2-(4-(4-(trifluoromethoxy)benzyl)piperazin-1-yl)pyridin-3-yl)-3-methoxy-1-methyl-1H-pyrazole-4-carboxamide] | 6.1
13 | COc1nn(C)cc1C(=O)Nc1cc(C#N)cnc1N1CCN(Cc2ccccc2OC(F)(F)F)CC1 [Example 167, N-(5-cyano-2-(4-(2-(trifluoromethoxy)benzyl)piperazin-1-yl)pyridin-3-yl)-3-methoxy-1-methyl-1H-pyrazole-4-carboxamide] | 6.5
14 | COc1ccc(CN2CCN(c3ncc(C#N)cc3NC(=O)c3cn(C)nc3OC)CC2)cc1F [Example 168, N-(5-cyano-2-(4-(3-fluoro-4-methoxybenzyl)piperazin-1-yl)pyridin-3-yl)-3-methoxy-1-methyl-1H-pyrazole-4-carboxamide] | 6.4
15 | COc1nn(C)cc1C(=O)Nc1cc(C#N)cnc1N1CCN(Cc2cc(F)cc(F)c2)CC1 [Example 169, N-(5-cyano-2-(4-(3,5-difluorobenzyl)piperazin-1-yl)pyridin-3-yl)-3-methoxy-1-methyl-1H-pyrazole-4-carboxamide] | 6.4
16 | COc1cc(F)c(F)cc1CN1CCN(c2ncc(C#N)cc2NC(=O)c2cn(C)nc2OC)CC1 [Example 170, N-(5-cyano-2-(4-(4,5-difluoro-2-methoxybenzyl)piperazin-1-yl)pyridin-3-yl)-3-methoxy-1-methyl-1H-pyrazole-4-carboxamide] | 6.5

Row | SMILES | pEC50, in vitro inhibition of cAMP
17 | COc1nn(C)cc1C(=O)Nc1cc(C#N)cnc1N1CCN(Cc2c(F)cc(F)c(OC)c2F)CC1 [Example 171, N-(5-cyano-2-(4-(2,4,6-trifluoro-3-methoxybenzyl)piperazin-1-yl)pyridin-3-yl)-3-methoxy-1-methyl-1H-pyrazole-4-carboxamide] | 6.6
18 | COc1nn(C)cc1C(=O)Nc1cc(C#N)cnc1N1CCN(Cc2ccc(Cl)cc2F)CC1 [Example 172, N-(2-(4-(4-chloro-2-fluorobenzyl)piperazin-1-yl)-5-cyanopyridin-3-yl)-3-methoxy-1-methyl-1H-pyrazole-4-carboxamide] | 7.1
19 | COc1nn(C)cc1C(=O)Nc1cc(C#N)cnc1N1CCN(Cc2c(F)cc(F)cc2F)CC1 [Example 173, N-(5-cyano-2-(4-(2,4,6-trifluorobenzyl)piperazin-1-yl)pyridin-3-yl)-3-methoxy-1-methyl-1H-pyrazole-4-carboxamide] | 6.8
20 | COc1nn(C)cc1C(=O)Nc1cc(C#N)cnc1N1CCN(Cc2c(F)cc(Cl)cc2F)CC1 [Example 174, N-(2-(4-(4-chloro-2,6-difluorobenzyl)piperazin-1-yl)-5-cyanopyridin-3-yl)-3-methoxy-1-methyl-1H-pyrazole-4-carboxamide] | 7.1
21 | COc1cccc(C(=O)Nc2cc(C#N)ccc2N2CCC(Oc3ccc(F)cc3F)CC2)n1 [Example 175, N-(5-cyano-2-(4-(2,4-difluorophenoxy)piperidin-1-yl)phenyl)-6-methoxypicolinamide] | 7.0
22 | Cc1cc(C)n(C)c(=O)c1C(=O)Nc1cc(C#N)ccc1N1CCC(Oc2ccc(F)cc2F)CC1 [Example 176, N-(5-cyano-2-(4-(2,4-difluorophenoxy)piperidin-1-yl)phenyl)-1,4,6-trimethyl-2-oxo-1,2-dihydropyridine-3-carboxamide] | 6.5
23 | N#Cc1ccc(N2CCC(Oc3ccc(F)cc3F)CC2)c(NC(=O)c2cnc3ccccn3c2=O)c1 [Example 178, N-(5-cyano-2-(4-(2,4-difluorophenoxy)piperidin-1-yl)phenyl)-4-oxo-4H-pyrido[1,2-a]pyrimidine-3-carboxamide] | 6.8
24 | CCCCn1cccc(C(=O)Nc2cc(C#N)ccc2N2CCC(Oc3ccc(F)cc3F)CC2)c1=O [Example 179, 1-butyl-N-(5-cyano-2-(4-(2,4-difluorophenoxy)piperidin-1-yl)phenyl)-2-oxo-1,2-dihydropyridine-3-carboxamide] | 6.2
25 | N#Cc1ccc(N2CCC(Oc3ccc(F)cc3F)CC2)c(NC(=O)c2cccn(C3CCCCC3)c2=O)c1 [Example 180, N-(5-cyano-2-(4-(2,4-difluorophenoxy)piperidin-1-yl)phenyl)-1-cyclohexyl-2-oxo-1,2-dihydropyridine-3-carboxamide] | 5.8
26 | CC(C)n1cccc(C(=O)Nc2cc(C#N)ccc2N2CCC(Oc3ccc(F)cc3F)CC2)c1=O [Example 181, N-(5-cyano-2-(4-(2,4-difluorophenoxy)piperidin-1-yl)phenyl)-1-isopropyl-2-oxo-1,2-dihydropyridine-3-carboxamide] | 6.4
27 | CC(C)n1cc(Br)cc(C(=O)Nc2cc(C#N)ccc2N2CCC(Oc3ccc(F)cc3F)CC2)c1=O [Example 182, 5-bromo-N-(5-cyano-2-(4-(2,4-difluorophenoxy)piperidin-1-yl)phenyl)-1-isopropyl-2-oxo-1,2-dihydropyridine-3-carboxamide] | 6.3
28 | Cn1c(-c2ccccc2)ncc(C(=O)Nc2cc(C#N)ccc2N2CCC(Oc3ccc(F)cc3F)CC2)c1=O [Example 183, N-(5-cyano-2-(4-(2,4-difluorophenoxy)piperidin-1-yl)phenyl)-1-methyl-6-oxo-2-phenyl-1,6-dihydropyrimidine-5-carboxamide] | 5.9
29 | Cc1cc(C(=O)Nc2cc(C#N)ccc2N2CCC(Oc3ccc(F)cc3F)CC2)c(=O)n(C)c1C [Example 184, N-(5-cyano-2-(4-(2,4-difluorophenoxy)piperidin-1-yl)phenyl)-1,5,6-trimethyl-2-oxo-1,2-dihydropyridine-3-carboxamide] | 6.8
30 | Cn1c2c(cc(C(=O)Nc3cc(C#N)ccc3N3CCC(Oc4ccc(F)cc4F)CC3)c1=O)CCCC2 [Example 185] | 6.4
31 | CC(C)c1ccc(C(=O)Nc2cc(C#N)ccc2N2CCC(Oc3ccc(F)cc3F)CC2)c(=O)n1C [Example 186] | 6.4
32 | Cc1cccc2ncc(C(=O)Nc3cc(C#N)ccc3N3CCC(Oc4ccc(F)cc4F)CC3)c(=O)n12 [Example 187, N-(5-cyano-2-(4-(2,4-difluorophenoxy)piperidin-1-yl)phenyl)-6-methyl-4-oxo-4H-pyrido[1,2-a]pyrimidine-3-carboxamide] | 6.6
